Source: article PMC9994763, “A Conformational Change in the N Terminus of SLC38A9 Signals mTORC1 Activation” (Structure (London, England : 1993), 2020)
Where a chain is given by its changes, count along the chain named.

Assays:
Type in all cases: biochemical
[1] = target: T1, drSLC38A9 (drSLC38A9^71-549) (Danio rerio, UniProt Q08BA4, N227Q/N235Q/N252Q/N263Q); test: [3H]arginine uptake in proteoliposomes, filtration, […] min; details: outside pH 7.4, inside pH 5.0, room temperature; 0.5 uM labelled compound
T1 construct: gene slc38a9; residues 71-549 (N-plug kept); N-terminal His8-thrombin tag removed; Sf-9; liposomes; the printed 5A DNA also starts at residue 71
T1 sequence (Q08BA4 71-549 N227Q/N235Q/N252Q/N263Q): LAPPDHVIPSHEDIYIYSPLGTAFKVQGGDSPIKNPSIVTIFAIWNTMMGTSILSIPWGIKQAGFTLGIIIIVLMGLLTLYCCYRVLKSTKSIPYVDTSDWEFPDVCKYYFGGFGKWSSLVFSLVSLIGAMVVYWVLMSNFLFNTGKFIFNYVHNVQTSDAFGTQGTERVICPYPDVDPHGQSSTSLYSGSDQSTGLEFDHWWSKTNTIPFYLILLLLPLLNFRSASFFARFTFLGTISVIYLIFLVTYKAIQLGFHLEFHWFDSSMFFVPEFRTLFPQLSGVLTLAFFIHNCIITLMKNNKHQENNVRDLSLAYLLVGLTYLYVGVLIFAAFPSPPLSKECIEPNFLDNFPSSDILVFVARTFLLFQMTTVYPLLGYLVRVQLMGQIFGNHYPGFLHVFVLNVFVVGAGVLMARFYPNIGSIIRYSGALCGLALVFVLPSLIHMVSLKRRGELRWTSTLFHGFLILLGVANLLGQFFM

[2] = target: T2, drSLC38A9^97-549 (N-terminal deletion, without N-plug) (Danio rerio, UniProt Q08BA4, N227Q/N235Q/N252Q/N263Q); test: [3H]leucine uptake in proteoliposomes, filtration; details: 0.5 uM labelled compound, pH 5.0 assay buffer, room temperature; with or without 200 uM arginine
T2 construct: gene slc38a9; residues 97-549 (N-plug deleted); N-terminal His8-thrombin tag removed; Sf-9; liposomes
T2 sequence (Q08BA4 97-549 N227Q/N235Q/N252Q/N263Q): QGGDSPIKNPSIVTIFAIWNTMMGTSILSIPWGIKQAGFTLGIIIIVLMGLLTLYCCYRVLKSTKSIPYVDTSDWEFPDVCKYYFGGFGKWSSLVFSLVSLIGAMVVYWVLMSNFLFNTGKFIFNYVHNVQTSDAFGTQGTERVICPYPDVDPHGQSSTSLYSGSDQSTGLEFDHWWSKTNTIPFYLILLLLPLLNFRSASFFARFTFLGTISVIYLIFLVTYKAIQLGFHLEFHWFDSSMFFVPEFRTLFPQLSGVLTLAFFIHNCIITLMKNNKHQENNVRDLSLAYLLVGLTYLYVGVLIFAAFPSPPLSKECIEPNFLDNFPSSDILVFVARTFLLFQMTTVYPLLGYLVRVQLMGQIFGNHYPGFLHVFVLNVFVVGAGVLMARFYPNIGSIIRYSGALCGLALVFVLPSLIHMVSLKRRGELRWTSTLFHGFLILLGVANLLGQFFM

[3] = target: T3, drSLC38A9 (drSLC38A9^71-549) (Danio rerio, UniProt Q08BA4, P79A/S80A/H81A/E82A/Y85A/N227Q/N235Q/N252Q/N263Q); test: [3H]leucine uptake in proteoliposomes, filtration; details: 0.5 uM labelled compound, pH 5.0 assay buffer, room temperature; with or without 200 uM arginine
T3 construct: gene slc38a9; residues 71-549 (N-plug kept); N-terminal His8-thrombin tag removed; Sf-9; liposomes; the printed 5A DNA also starts at residue 71
T3 sequence (Q08BA4 71-549 P79A/S80A/H81A/E82A/Y85A/N227Q/N235Q/N252Q/N263Q): T1 sequence (Q08BA4 71-549 N227Q/N235Q/N252Q/N263Q) with P9A, S10A, H11A, E12A, Y15A

SMILES | [3H]arginine uptake in proteoliposomes, filtration, 5 min [1] | [3H]leucine uptake in proteoliposomes, filtration [2] | [3H]leucine uptake in proteoliposomes, filtration [3]
N=C(N)NCCC[C@H](N)C(=O)O [arginine] | the construct studied structurally here and the wild-type drSLC38A9 transport arginine with similar rates | – | –
CC(C)C[C@H](N)C(=O)O [leucine] | – | The mutant proteins show similar transport capacity for leucine regardless of whether arginine was added | The mutant proteins show similar transport capacity for leucine regardless of whether arginine was added
